Data set [1] in a line: Metabolic stability in human liver S9 fraction. It is filed as in vitro ADME. Particulars: human liver S9, 1 µM. The method, then: page 57: 3. Biological evaluation 3.1 In vitro inhibition assays […] MMPs, TACE). […] inhibitor screening kits were purchased from Sigma-Aldrich (Saint Louis, MO). MMPs along with the SensoLyte 520 Generic MMP Activity Kit Fluorimetric were purchased from AnaSpec (Fremont, CA, USA). The assays were performed according to the guidelines of the respective manufacturer. Fluorescence signals were measured using a CLARIOstar plate reader (BMG Labtech, Ortenberg, Germany). 3.2 Kinetic solubility […] well were transferred into another 96-well plate and mixed with 148.5 µL of PBS. Plates were shaken for 5 min at 600 rpm at room temperature (r.t.), and the absorbance at 620 nm was measured. Absorbance values were normalized by blank subtraction and plotted using GraphPad Prism 8.4.2 (GraphPad Software, San Diego, CA, USA). Solubility (S) was […] 3.3 Lipophilicity determination LogD7.4 was analyzed using an HPLC−based method. The UV retention time of reference […] Linear […] Analysis was performed using a Vanquish Flex HPLC system with variable wavelength detector (Thermo Fisher, Dreieich, Germany) with the following conditions: EC150/2 NUCLEODUR C18 Pyramid column, 5 μM (Macherey Nagel, Düren, Germany); eluent A: 50 mM NH4OAc pH 7.4, eluent B: acetonitrile, and flow: 0.6 mL/min. […] 3.4 Metabolic stability in liver S9 fractions For the evaluation of combined phase I and phase II metabolic stability, the compound (1 μM) was incubated with 1 mg/mL pooled mouse liver S9 fraction (C57BL/6, Xenotech, Kansas Cit y, USA) or human liver S9 fraction (Corning, USA), 2 mM NADPH, 1 mM UDPGA, 10 mM MgCl2, 5 mM GSH and 0.1 mM PAPS at 37 °C for 120 min. The metabolic stability of testosterone, verapamil and ketoconazole were determined in parallel to confirm the enzymatic activity of S56 page 58: mouse S9 fractions, for human S9 testosterone, diclofenac and propranolol were used. The incubation was stopped after defined time points by precipitation of aliquots of S9 enzymes […] Samples were stored on ice until the end of the incubation and precipitated protein was removed by centrifugation (15 min, 4 °C, 4,000 g). Concentration of the remaining test compound at the different time points was analyzed by HPLC-MS/MS (TSQ Quantum Access MAX, Thermo Fisher, Dreieich, Germany) and used to determine half -life (t1/2) and intrinsic clearance (Clint). Species profiling was conducted as above using 0.5 mg/mL pooled mouse, rat or minipig liver microsomes (Xenotech, Kansas City, USA) with 2 mM NADPH and 10 mM MgCl2 and testosterone, verapamil and ketoconazole as reference compounds. 3.5 Plasma stability To determine stability in plasma, the compound (1 µM) was incubated with pooled CD -1 mouse/human/Wistar rat or Göttingen minipig plasma (Neo Biotech, Nanterre, France). Samples were taken by mixing aliquots with 4 volumes of acetonitrile containing internal standard (125 nM diphenhydramine). The plasma stability of procain, propantheline and diltiazem were determined in parallel to confirm the enzymatic activity. Samples were stored on ice until the end of the incubation and precipitated protein was removed by centrifugation (15 min, 4 °C, 4,000 g, two centrifugation steps). Concentration of the remaining test compound at the different time points was analyzed by HPLC-MS/MS (TSQ Quantum Access MAX, Thermo Fisher, Dreieich, Germany) and used to determine half-life (t1/2). Table S2: Additional in vitro ADMET data for selected dipeptides. n.d.: not determined. […] Compound Solubility PBS pH 7.4 [µM] Mouse Human Mouse Human […] S57

The target in another data set is T1, MMP-2 (Homo sapiens, UniProt P08253).
T1 construct: purchased AnaSpec (Fremont, CA, USA)
T1 sequence (P08253 110-660): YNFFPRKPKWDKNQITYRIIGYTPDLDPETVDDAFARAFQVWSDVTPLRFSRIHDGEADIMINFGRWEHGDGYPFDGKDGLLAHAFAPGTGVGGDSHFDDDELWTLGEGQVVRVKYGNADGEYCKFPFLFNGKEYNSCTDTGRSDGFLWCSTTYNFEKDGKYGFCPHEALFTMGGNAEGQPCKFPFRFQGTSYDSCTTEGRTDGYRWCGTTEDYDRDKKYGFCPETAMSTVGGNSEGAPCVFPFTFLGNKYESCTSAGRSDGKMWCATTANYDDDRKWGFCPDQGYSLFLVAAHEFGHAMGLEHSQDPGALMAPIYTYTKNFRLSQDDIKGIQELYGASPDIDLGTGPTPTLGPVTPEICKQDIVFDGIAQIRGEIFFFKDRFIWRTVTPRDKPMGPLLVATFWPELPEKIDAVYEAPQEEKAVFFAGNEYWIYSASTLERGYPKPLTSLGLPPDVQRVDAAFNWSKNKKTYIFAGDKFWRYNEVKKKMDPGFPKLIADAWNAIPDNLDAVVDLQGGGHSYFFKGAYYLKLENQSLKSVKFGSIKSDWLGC
The data set is described as follows: MMP-2 inhibition (off-target). It is filed as biochemical. Particulars: read-out: MMP-2 % inhibition at 100 µM. As for the experimental part: 3.1 In vitro inhibition assays […]
MMPs, TACE). All in vitro inhibition assays were performed as described previously.[10] TACE inhibitor screening kits were purchased from Sigma-Aldrich (Saint Louis, MO). MMPs along with the SensoLyte 520 Generic MMP Activity Kit Fluorimetric were purchased from AnaSpec (Fremont, CA, USA). The assays were performed according to the guidelines of the respective manufacturer. Fluorescence signals were measured using a CLARIOstar plate reader (BMG Labtech, Ortenberg, Germany). […]
3.8 Test against zinc metalloproteases MMP1–3 and TACE (ADAM17), and testing of
We selected a panel of human off -targets, including three human matrix metalloproteases (MMP-1, -2 and -3) and TACE (ADAM-17). These assays were performed as described previously.[3] The TACE inhibitor screening kit was purchased from Sigma -Aldrich (Saint Louis, MO). MMPs along with the SensoLyte 520 Generic MMP Activity Kit Fluorimetric were purchased from AnaSpec (Fremont, CA, USA). The assays were performed according to the guidelines of the respective manufacturer. Fluorescence signals were measured using a CLARIOstar plate reader (BMG Labtech, Ortenberg, Germany). […]
Table S6: Percent (%) inhibition of three MMPs (1 –3) and TACE (ADAM17) in presence of selected LasB inhibitors at 100 µM. Results are means and SD of at least two independent experiments. […]
Compound [% inhibition at [% inhibition at [% inhibition at [% inhibition at 100

For the molecule `CC(=O)c1ccc(NC(=O)[C@@H](NC(=O)[C@@H](CC(C)C)P(=O)(O)O)C(C)C)cc1` [(R)‐30], the microsomal CLint at 1 µM in data set [1] was < 5.8 µL/min/mg. Moreover, at MMP-2, the inhibition at 100 µM is < 10%.

In the case of `CC(C)C[C@H](C(=O)N[C@H](C(=O)Nc1ccc(-n2ccnc2)cc1)C(C)C)P(=O)(O)O` [(R)‐36], the microsomal CLint at 1 µM in data set [1] was < 5.8 µL/min/mg. Further, on MMP-2, the inhibition at 100 µM was < 10%.

For the molecule `CC(C)CC(C(=O)N[C@H](C(=O)Nc1ccc(Cl)c(Cl)c1)C(C)C)P(=O)(O)O` (stereo partly drawn) [compound 9], the microsomal CLint at 1 µM in data set [1] was < 5.8 µL/min/mg. For the same molecule, the inhibition at 100 µM at MMP-2 was < 10%.

As for `CC(C)CC(C(=O)N[C@H](C(=O)Nc1ccc(Cl)c(Cl)c1)C1CCC1)P(=O)(O)O` (stereo partly drawn) [compound 13], the microsomal CLint at 1 µM in data set [1] is < 5.8 µL/min/mg. Moreover, the inhibition at 100 µM on MMP-2 was < 10%.

Regarding `CC(C)CC(C(=O)N[C@H](C(=O)Nc1ccc(Cl)c(Cl)c1)C1CCCCC1)P(=O)(O)O` (stereo partly drawn) [compound 14], the microsomal CLint at 1 µM in data set [1] is < 5.8 µL/min/mg. Moreover, the inhibition at 100 µM on MMP-2 is < 10%.

As to `CC(=O)c1ccc(NC(=O)[C@@H](NC(=O)C(CC(C)C)P(=O)(O)O)C(C)C)cc1` (stereo partly drawn) [compound 30], the intrinsic clearance (microsomal CLint) at 1 µM in data set [1] was < 5.8 µL/min/mg. For the same molecule, the inhibition at 100 µM at MMP-2 was < 10%.

In general, microsomal CLint refers to the rate of metabolic loss divided by the concentration. The inhibition is the change of the read-out against control, counted positive when it falls.
